Values of other authors in US8142802B2, “Insecticidal composition with enhanced synergistic activity” (priority 2003, dated 2012).

Settings: at room temperature

COP(=O)(NC(C)=O)SC (stereo not shown) [Acephate]
solubility in acetone: > 100 mg/mL
solubility in aromatic solvents: < 50 mg/mL
solubility in ethanol: > 100 mg/mL
solubility in water: about 650 g/l
